Measurements: article PMC10227015, “From a drug repositioning to a structure-based drug design approach to tackle acute lymphoblastic leukemia” (Nature Communications, 2023)
Read-outs that look alike come from different tables or passages of the source.

Tests used:
dCK-C3S-S74E [1] = test: Enzymatic assay (PK/LDH coupled), dC phosphorylation by dCK in the presence of UTP; assay type: biochemical, human; details: presence of UTP
Protocol: (§1) For enzymatic assays, cells were re-suspended in 20 mM TRIS, pH 8 500 mM NaCl, 0.1% BRIJ-35 and 5% glycerol buffer and one EDTA free anti-protease tablet was added (Roche). After sonication and centrifugation (30,000 × g), the supernatant was loaded on a 5 ml HisTrap FF column (GE healthcare) pre-equilibrated with 20 mM TRIS, pH 8, 500 mM NaCl, 0.01% BRIJ-35 and 5% glycerol buffer. The protein was then eluted by the same buffer containing 250 mM imidazole after a wash containing 25 mM imidazole. The eluted fraction was applied on a HiPrep 26/10 desalting column (GE healthcare) pre-equilibrated with 20 mM TRIS, pH 8, 500 mM NaCl, 5% glycerol and 0.01% BRIJ-35 buffer. Finally, protein in a 20% glycerol buffer was flash frozen in liquid nitrogen and stored at −80 °C.
Kinetic analyses were performed using a spectrophotometric continuous enzymatic-coupled assay using pyruvate kinase (PK) and lactate dehydrogenase (LDH). […] UTP is the physiological dCK-phosphate donor[46] and it was used to determine activation versus inhibition behavior. ATP was used to calculate IC50 values, as it allows the analysis of a dose response curve. The PK/LDH coupled assay is based on the conversion of phosphoenolpyruvate (PEP) and UDP/ADP to pyruvate and UTP/ATP by PK and the subsequent conversion of pyruvate to lactate by LDH. The latter step requires NADH, which is oxidized to NAD^+. NADH is fluorescent (excitation at 337 nm and emission at 460 nm), but not NAD^+. Thus, the measurement of fluorescent decrease at 460 nm is a measure of kinase activity. dCK experiments were performed in a buffer containing 50 mM HEPES, pH 7.5, 5 mM MgCl2, 1 mM DTT, and 100 mM KCl. Buffer was supplemented with PK (0.01 U/µl), LDH (0.02 U/µl), PEP (1 mM), NADH (300 µM) and compounds at varying concentrations. For UTP assays, protein concentration was 2 μM, substrate 200 µM (dC), and UTP 1 mM. For ATP assays, protein concentration was 100 nM (and 50 nM when indicated), substrate 100 µM (dC), and ATP 1 mM. All measurements were performed on a microplate reader Pherastar FS (BMG Labtech). All assays were performed in triplicate and each experiment was performed at least twice. The data are presented as mean ± SD. The results were plotted as kinetics and the velocity was determined for each condition as the slope of the linear range of the curve. For each compound concentration, the velocity of the reaction (according to V = d[P]/dt) was normalized with respect to the drug free control and velocity ratios were compared. IC50 values corresponding to enzymatic inhibition in ATP were calculated by nonlinear regression curves using GraphPad Prism software 9.4.0.

dCK-C3S-S74E [2] = test: Thermal shift assay (TSA); details: for THERMAL SHIFT ASSAY +Tm (°): mean ± SD; for ΔTm (º) (TSA): Figure 2a, mean
From the text: BL21 pRIL Escherichia coli cells were transformed with dCK-plasmids (dCK-C4S-S74E (for crystallization assays) and dCK-C3S-S74E (for TSA, enzymatic and ITC assays)). […] Protein dCK-C3S-S74E used for other assays contained only three mutated cysteines. The S74E mutation mimics the phosphorylated state of this serine, which favors the open conformation of the enzyme, making it competent for nucleoside binding[45] to evaluate the binding affinity with compounds.
For binding assays (TSA, ITC and crystallography) cells were re-suspended in 50 mM TRIS, pH 8, 500 mM NaCl, 30 mM imidazole and 10% glycerol buffer and one EDTA free anti-protease tablet was added (Roche). After sonication and centrifugation (30,000 × g), the supernatant was loaded on a 5 ml HisTrap FF column (GE healthcare) pre-equilibrated with resuspension buffer. Protein was then eluted by resuspension buffer containing 500 mM imidazole. Protein eluted fractions were mixed and concentrated. Protein was further purified by size exclusion chromatography (superdex 200 16/600, GE healthcare) in 20 mM HEPES, pH 7.5, and 200 mM NaCl before concentration to 30 mg/ml and storage at −80 °C.
Thermal shift assay (TSA) experiments were performed in 384-well PCR white plates in the assay buffer containing 20 mM HEPES, pH 7.5 and 200 mM NaCl. […] Plates were centrifuged at 200 × g for 2 min at 4 °C. […] Raw fluorescence data were treated, and the melting temperatures (Tm) were calculated using CFX Manager 3.1 software (Bio-Rad). ΔTm represents the difference in Tm between the protein in the presence of compound and the protein alone (both at 2% DMSO). Each experiment was performed at least twice (with technical triplicates) and data are presented as the mean ± SD.

CCRF-CEM cell line = test: dCK cellular assay: CCRF-CEM proliferation in the presence of dT and dC; assay type: cell-based, human; details: Homo sapiens
Protocol: The dCK cellular assay was set up to assess the ability to inhibit dCK activity in a cellular model. The model was developed with a T-cell acute lymphoblastic leukemia cell line (CCRF-CEM), because of its high dependence on the SP, thus on dCK activity. Cellular assays were performed to assess the inhibition of cell proliferation under two conditions: (i) in the presence of the compound alone to determine the nonspecific effect on cells, independent of dCK (nonspecific toxicity) and (ii) in the presence of an inhibitor of the DNP to determine the ability of compounds to inhibit dCK and decrease tumor proliferation (activity on dCK). The inhibitor of the DNP chosen for the experiments was thymidine (dT), a physiological inhibitor of ribonucleotide reductase which arrests cell proliferation in phase S. The dTTP produced via thymidine kinase from dT acts as a RNR inhibitor by an allosteric regulation of the R1 subunit. The addition of the nucleoside deoxycytidine (dC) in the medium allows the rescue of cell proliferation by passing only through the salvage pathway, mediated by dCK. dC needs to be added exogenously to mimic physiological concentrations because it is not present in the cell culture medium, on the contrary to mouse model, in which it is naturally present in the serum. Therefore, cell proliferation under these conditions (+dT +dC) is dCK dependent and it is possible to determine the IC50 of dCK inhibitors on the inhibition of cell proliferation. Results are expressed as % cell proliferation relative to the control with DMSO.
The amount of reduced dye formed by metabolically active cells was quantified by its fluorescence measured at 560 nm (excitation) and 590 nm (emission) in a microplate reader (CLARIOstar, BMG Labtech). A blank well without cells was used as a background control. Each experiment was performed at least three times (with technical triplicates) and data are presented as the mean ± SD.

dCK-C3S-S74E [3] = test: Enzymatic assay (PK/LDH coupled), dC phosphorylation by dCK in the presence of ATP; assay type: biochemical, human; details: presence of ATP, read-out: ENZYMATIC ASSAY IC50
Protocol: as §1
Kinetic analyses were performed using a spectrophotometric continuous enzymatic-coupled assay using pyruvate kinase (PK) and lactate dehydrogenase (LDH). Analysis of the effect of compounds on dCK-C3S-S74E activity was performed using dC as substrate and UTP/ATP as phosphate donors. UTP is the physiological dCK-phosphate donor[46] and it was used to determine activation versus inhibition behavior. ATP was used to calculate IC50 values, as it allows the analysis of a dose response curve. The PK/LDH coupled assay is based on the conversion of phosphoenolpyruvate (PEP) and UDP/ADP to pyruvate and UTP/ATP by PK and the subsequent conversion of pyruvate to lactate by LDH. The latter step requires NADH, which is oxidized to NAD^+. NADH is fluorescent (excitation at 337 nm and emission at 460 nm), but not NAD^+. Thus, the measurement of fluorescent decrease at 460 nm is a measure of kinase activity. dCK experiments were performed in a buffer containing 50 mM HEPES, pH 7.5, 5 mM MgCl2, 1 mM DTT, and 100 mM KCl. Buffer was supplemented with PK (0.01 U/µl), LDH (0.02 U/µl), PEP (1 mM), NADH (300 µM) and compounds at varying concentrations. For UTP assays, protein concentration was 2 μM, substrate 200 µM (dC), and UTP 1 mM. For ATP assays, protein concentration was 100 nM (and 50 nM when indicated), substrate 100 µM (dC), and ATP 1 mM. All measurements were performed on a microplate reader Pherastar FS (BMG Labtech). All assays were performed in triplicate and each experiment was performed at least twice. The data are presented as mean ± SD. The results were plotted as kinetics and the velocity was determined for each condition as the slope of the linear range of the curve. For each compound concentration, the velocity of the reaction (according to V = d[P]/dt) was normalized with respect to the drug free control and velocity ratios were compared. IC50 values corresponding to enzymatic inhibition in ATP were calculated by nonlinear regression curves using GraphPad Prism software 9.4.0.

[4] = read-out: dCK CELLULAR ASSAY IC50 (nM), CCRF-CEM, 200 µM dT and 1 µM dC, read-out: dCK […] ASSAY IC50
[5] = Figure 2a, CCRF-CEM cell line, mean, read-out: IC50 (nM) (Cell Prolif)

Sequence of dCK-C3S-S74E (P27707 whole entry S74E, form open): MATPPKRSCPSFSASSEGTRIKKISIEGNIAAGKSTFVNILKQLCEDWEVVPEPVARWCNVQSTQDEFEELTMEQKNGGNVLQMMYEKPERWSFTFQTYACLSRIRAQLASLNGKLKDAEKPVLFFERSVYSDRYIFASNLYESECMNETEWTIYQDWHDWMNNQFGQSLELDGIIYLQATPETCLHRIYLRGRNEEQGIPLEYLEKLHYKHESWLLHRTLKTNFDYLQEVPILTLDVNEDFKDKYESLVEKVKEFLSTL

SMILES	ENZYMATIC ASSAY (Activation/Inhibition) (dCK-C3S-S74E [1])	THERMAL SHIFT ASSAY +Tm (°) (dCK-C3S-S74E [2])	IC50 (CCRF-CEM cell line; [4]) [nM]	IC50 (dCK-C3S-S74E [3]; [dCK] = 100 nM) [µM]	ΔTm (º) (TSA) (dCK-C3S-S74E [2])	IC50 (CCRF-CEM cell line; [5]) [nM]	IC50 (dCK-C3S-S74E [3]; [dCK] = 50 nM (footnote A)) [µM]
Cc1ccc(NC(=O)c2ccc(CN3CCN(C)CC3)s2)cc1Nc1nc(-c2nccc(N)n2)cs1 [OR0241]	A/I	13.5 ± 0.0	14200 ± 1160	3.77 ± 2.19			
Cc1ccc(-c2ccc(O)cc2)cc1Nc1nc(-c2nccc(N)n2)cs1 [OR0320]	A/I	15.0 ± 0.2	6770 ± 2810	1.76 ± 0.385			
Cc1ccc(-c2ccc(CCN3CCN(C)CC3)cc2)cc1N(CCCN)c1nc(-c2nc(N)cc(N)n2)cs1 [OR0611]	A/I	14.7 ± 0.5			14.67 º	11800	0.498 ± 0.119
Cc1ccc(NC(=O)c2ccc(CCN3CCN(C)CC3)cc2)cc1Nc1nc(-c2nccc(N)n2)cs1 [OR0146]	A/I	14.8 ± 0.4	14600 ± 1190	3.46 ± 0.349			
Cc1ccc(OCc2ccc(CN3CCN(C)CC3)cc2)cc1Nc1nc(-c2nccc(N)n2)cs1 [OR0232]	A/I	15.2 ± 0.0	3460 ± 638	1.94 ± 0.529			
COc1cc(-c2ccc(C)c(Nc3nc(-c4nccc(N)n4)cs3)c2)ccc1O [OR0321]	A/I	13.3 ± 0.2	8290 ± 2710	2.27 ± 0.293			
CCCN(c1nc(-c2nc(N)cc(N)n2)cs1)c1cc(-c2ccc(CCCN3CCN(C)CC3)cc2)ccc1C [OR0601]	I	20.8 ± 0.7	420 ± 83	0.137 ± 0.003			
CCCN(c1nc(-c2nc(N)cc(N)n2)cs1)c1cc(-c2ccc(C(=O)N3CCN(C)CC3)nc2)ccc1C [OR0612]	I	16.6 ± 0.8			16.58 º	1000	0.195 ± 0.016
Cc1ccc(NC(=O)c2ccc(CN3CC4(CN(C)C4)C3)cc2)cc1Nc1nc(-c2nccc(N)n2)cs1 [OR0156]	A/I	12.6 ± 0.1	> 40000	6.38 ± 2.08			
CCCN(c1nc(-c2nc(N)cc(N)n2)cs1)c1cc(-c2ccc(S(N)(=O)=O)cc2)ccc1C [OR0615]	I	17.5 ± 0.7			17.5 º	411	0.088 ± 0.068
CCCN(c1nc(-c2nccc(N)n2)cs1)c1cc(NC(=O)c2ccc(CN3CCN(C)CC3)cc2)ccc1C [OR0105]	I	14.5 ± 0.2	1620 ± 254	2.14 ± 0.049			
Cc1ccc(-c2ccc(CCN3CCN(C)CC3)cc2)cc1N(CC(C)C)c1nc(-c2nc(N)cc(N)n2)cs1 [OR0603]	I	21.3 ± 0.8	255 ± 70				0.149 ± 0.044
CCCN(c1nc(-c2nc(N)cc(N)n2)cs1)c1cc(-c2ccc(S(=O)(=O)N(C)C)cc2)ccc1C [OR0618]	I	18.8 ± 0.6			18.79 º	80	0.139 ± 0.012
Cc1ccc(NC(=O)c2ccc(CN3CCN(C)CC3)cc2)cc1Nc1nc(-c2ncc(F)c(N)n2)cs1 [OR0239]	A/I	14.3 ± 0.4	14800 ± 1580	3.35 ± 1.07			
CCCN(c1nc(-c2nc(N)cc(N)n2)cs1)c1cc(-c2ccc(S(=O)(=O)N3CCOCC3)cc2)ccc1C [OR0617]	I	18.3 ± 1.1			18.29 º	78	0.181 ± 0.015
Cc1ccc(-c2ccc(CCCN3CCN(C)CC3)cc2)cc1Nc1nc(-c2nccc(N)n2)cs1 [OR0331]	A/I	19.4 ± 0.4	918 ± 107	0.401 ± 0.028			
Cc1ccc(C#Cc2ccc(CN(C)C)cc2)cc1Nc1nc(-c2nccc(N)n2)cs1 [OR0237]	A/I	15.3 ± 0.5	3340 ± 1450	2.14 ± 0.387			
CCCN(c1nc(-c2nccc(N)n2)cs1)c1cc(-c2ccc(OCCN3CCN(C)CC3)cc2)ccc1C [OR0596]	I	18.9 ± 0.1	307 ± 50	0.286 ± 0.145			
CN1CCN(Cc2ccc(C(=O)Nc3ccc4c(c3)N(c3nc(-c5nccc(N)n5)cs3)CCCC4)cc2)CC1 [OR0289]	A/I	15.9 ± 0.5	3920 ± 461	3.4 ± 0.564			
CCCN(c1nc(-c2nc(N)cc(N)n2)cs1)c1cc(-c2cnc(N)nc2)ccc1C [OR0613]	I	14.5 ± 0.7			14.5 º	703	
